Tests used:
Format in all cases: in vivo
[1] = tested on: Lambsquarters; assay: Greenhouse pot test, pre-emergence soil treatment, visual control effect 30 days after treatment, Gowing method
[2] = tested on: Amaranthusretroflexus; assay: Field plot test, non-cultivated weeds, pre-emergence soil treatment; conditions: Table 8, dose 600 ga.i./hm^2
Experimental: (§1) The present application also conducted a medicinal efficacy test on weeds on the formulation examples containing herbicide active component A and active component B by the field plot test method, and clarified the control effect of the composition on non-cultivated weeds.
(§2) According to the different components of different formulation examples, pre-emergence soil treatment, early post-emergence and post-emergence stem and leaf spray treatment were carried out respectively. The spraying device was Singapore Linong HD400 hand-operating knapsack sprayer (No. H17001), working pressure: […], spray rate: 640 mL/min, adjustable cone spraying nozzle (325787), spraying nozzle height: 0.5 m, spray width: 0.85 m, walking speed: about 16.7 m/min, and spray volume: […];

[3] = tested on: Lambsquarters; assay: as above; conditions: Table 8, dose 600 ga.i./hm^2
Experimental: as §1, §2

[4] = tested on: Bristlegrass; assay: as above; conditions: Table 8, dose 600 ga.i./hm^2
Experimental: as §1, §2

[5] = tested on: Crabgrass; assay: as above; conditions: Table 8, dose 600 ga.i./hm^2
Experimental: as §1, §2

[6] = tested on: Bristlegrass; assay: Greenhouse pot test, pre-emergence soil treatment, visual control effect 30 days after treatment, Gowing method
Experimental: (§3) In the present application, indoor combined action of the compound of herbicide active component A and B on weeds was measured to determine the combined effect of the composition on weeds, wherein the structure of the active component A was as follows:
(§4) The weed cultivation method was as follows: quantitative weed seeds abutilon and bristlegrass were respectively sown in a paper cup filled with nutrient soil with a diameter of 7 cm, and then cultivated in the greenhouse after covering the soil, suppressing and watering. The post-emergence stem and leaf treatment was performed when the grass weeds grew to 5-7 leaf stage, broad-leaved weeds grew to 6-8 leaf stage; the pre-emergence soil treatment was performed the second day after sowing, and the early post-emergence treatment was performed after sowing and before emergence; the experiment was repeated 3 times. After the treatment and drug solution naturally dried, the weeds were placed in the greenhouse to be managed according to conventional methods. According to the suppression or death of the weeds, a visual control effect investigation was conducted 30 days after the treatment. The application adopted the Gowing method to evaluate the combined effect of the proposed composition.
(§5) X—Weed control effect when the amount of herbicide component A is P;
(§6) Y—Weed control effect when the amount of herbicide component B is Q;
(§7) E0—Theoretical control effect when the amount of herbicide component A is […];
(§8) E—The measured control effect after the herbicide component A and the herbicide component B are mixed according to the above ratio.
(§9) When E−E0>10%, it is synergism; when E−E0<−10%, it is antagonism; when E−E0 value is between ±10%, it is addition.

[7] = tested on: Abutilon; assay: Greenhouse pot test (treatment timing not given, Table 6), visual control effect, Gowing method
Experimental: as §3, §4, §5, §6, §7, §8, §9

[8] = tested on: Amaranthusretroflexus; assay: Greenhouse pot test (treatment timing not given, Table 7), visual control effect, Gowing method
[9] = tested on: Abutilon; assay: Example 15 indoor pot planting, death rate / herbicidal speed, weeds in 6-leaf stage
Experimental: (§10) The death rate of weeds after application of the herbicidal composition of the present application was measured and compared with the herbicidal rate when a single component was used. The test used the method of indoor pot planting. At the time of treatment, abutilon and barnyardgrass were in 6-leaf stage.

[10] = tested on: Echinochloacrusgalli; assay: as above
Experimental: as §10

[11] = tested on: Eclipta alba; assay: Greenhouse pot test, pre-emergence soil treatment, visual control effect 30 days after treatment, Gowing method
[12] = tested on: Abutilon; assay: as above
Experimental: as §3, §4, §5, §6, §7, §8, §9

[13] = tested on: Abutilon; assay: Greenhouse pot test, post-emergence stem and leaf treatment, visual control effect 30 days after treatment, Gowing method
Experimental: as §3, §4, §5, §6, §7, §8, §9

[14] = tested on: Bristlegrass; assay: as above
Experimental: as §3, §4, §5, §6, §7, §8, §9

[15] = tested on: goosegrass (collected from Zhengzhou, Henan); assay: Example 13 combined effect on weeds, Gowing method
Experimental: (§11) The weed cultivation and test material cultivation method was as follows: quantitative weed seeds abutilon and bristlegrass were respectively sown in a paper cup filled with nutrient soil with a diameter of 7 cm, and then cultivated in the greenhouse after covering the soil, suppressing and watering. The stem and leaf spray treatment was performed when the grass weeds grew to 5-7 leaf stage, and broad-leaved weeds grew to 6-8 leaf stage; the tests were repeated for 3 times. the treatment and drug solution naturally dried, the weeds were placed in the greenhouse to be managed according to conventional methods. According to the suppression or death of the weeds, a visual control effect investigation was conducted 30 days after the treatment.
(§12) The application adopted the Gowing method to evaluate the combined effect of the proposed composition.
as §5, §6, §7, §8, §9
(§13) The test targets were horseweed herb collected from Shenyang, Liaoning and goosegrass collected from Zhengzhou, Henan.

[16] = tested on: Horseweed herb (collected from Shenyang, Liaoning); assay: Example 13 combined effect on weeds, Gowing method
Experimental: as §11, §12, §5, §6, §7, §8, §9, §13

[17] = tested on: Bristlegrass; assay: Greenhouse pot test (treatment timing not given, Tables 6 and 7), visual control effect, Gowing method
Experimental: as §3, §4, §5, §6, §7, §8, §9

[18] = tested on: Abutilon; assay: Example 12 indoor pot experiment, stem and leaf spray, visual control effect 30 days after treatment, Gowing method
Experimental: (§14) The combined effect of the composition on the weeds was clarified by the indoor pot experiment.
as §11, §12, §5, §6, §7, §8, §9

[19] = tested on: Bristlegrass; assay: as above
Experimental: as §14, §11, §12, §5, §6, §7, §8, §9

[20] = Table 11, 7 days after treatment, dose 15 ga.i./hm^2
[21] = Table 11, 7 days after treatment, dose 30 ga.i./hm^2
[22] = Table 11, 7 days after treatment, dose 60 ga.i./hm^2
[23] = Table 11, 7 days after treatment, dose 120 ga.i./hm^2
[24] = Table 11, 15 days after treatment, dose 15 ga.i./hm^2
[25] = Table 11, 15 days after treatment, dose 30 ga.i./hm^2
[26] = Table 11, 15 days after treatment, dose 60 ga.i./hm^2
[27] = Table 11, 15 days after treatment, dose 120 ga.i./hm^2
[28] = Table 11, 30 days after treatment, dose 15 ga.i./hm^2
[29] = Table 11, 30 days after treatment, dose 30 ga.i./hm^2
[30] = Table 11, 30 days after treatment, dose 60 ga.i./hm^2
[31] = Table 11, 30 days after treatment, dose 120 ga.i./hm^2
[32] = Example 13 Table 2, dose 3.75 ga.i./hm^2
[33] = Example 13 Table 2, dose 7.5 ga.i./hm^2
[34] = Example 13 Table 2, dose 15 ga.i./hm^2
[35] = Example 13 Table 2, dose 30 ga.i./hm^2
[36] = Example 12 Table 1, dose 3.75 ga.i./hm^2
[37] = Example 12 Table 1, dose 7.5 ga.i./hm^2
[38] = Example 12 Table 1, dose 15 ga.i./hm^2
[39] = Example 12 Table 1, dose 30 ga.i./hm^2

COC[C@H](C)N(C(=O)CCl)c1c(C)csc1C [Dimethoxamid-P]
Measured value E ([1]; Table 1, dose 75 ga.i./hm^2): 35% | Measured value E ([1]; Table 1, dose 150 ga.i./hm^2): 50% | Control effect, Amaranthusretroflexus [2]: 80 | Control effect, Lambsquarters [3]: 75 | Control effect, Bristlegrass [4]: 55 | Control effect, Crabgrass [5]: 70 | Measured value E ([6]; Table 1, dose 75 ga.i./hm^2): 30% | Measured value E ([6]; Table 1, dose 150 ga.i./hm^2): 55%

COCC(C)N(C(=O)CCl)c1c(C)csc1C (stereo not shown) [Dimethoxamide]
Measured value E ([1]; Table 1, dose 75 ga.i./hm^2): 20% | Measured value E ([1]; Table 1, dose 150 ga.i./hm^2): 35% | Control effect, Amaranthusretroflexus [2]: 55 | Control effect, Lambsquarters [3]: 70 | Control effect, Bristlegrass [4]: 50 | Control effect, Crabgrass [5]: 70 | Measured value E ([6]; Table 1, dose 75 ga.i./hm^2): 25% | Measured value E ([6]; Table 1, dose 150 ga.i./hm^2): 40%

CCc1cccc(C)c1N(C(=O)CCl)[C@@H](C)COC [S-metolachlor]
Measured value E ([1]; Table 2, dose 90 ga.i./hm^2): 45% | Measured value E ([1]; Table 2, dose 135 ga.i./hm^2): 65% | Control effect, Amaranthusretroflexus [2]: 75 | Control effect, Lambsquarters [3]: 50 | Control effect, Bristlegrass [4]: 60 | Control effect, Crabgrass [5]: 70 | Measured value E ([6]; Table 2, dose 90 ga.i./hm^2): 35% | Measured value E ([6]; Table 2, dose 135 ga.i./hm^2): 60%

CCOC(=O)C1(C)CC(c2cc(-n3c(=O)cc(C(F)(F)F)n(C)c3=O)c(F)cc2Cl)=NO1 (stereo not shown) [active component A, 3-(2-chloro-4-fluoro-5-(3-methyl-2,6-dioxo-4-trifluoromethyl-3,6-dihydropyrimidine-1(2H)-yl)phenyl)-5-methyl-4,5-dihydroisoxazole-5-carboxylic acid ethyl ester]
Measured value E ([7]; dose 15 ga.i./hm^2): 35% | Measured value E ([7]; dose 60 ga.i./hm^2): 45% | Measured value E ([1]; Table 1, dose 7.5 ga.i./hm^2): 5% | Measured value E ([1]; Table 1, dose 15 ga.i./hm^2): 20% | Measured value E ([1]; Table 2, dose 15 ga.i./hm^2): 15% | Measured value E ([1]; Table 2, dose 22.5 ga.i./hm^2): 25% | Measured value E ([8]; dose 15 ga.i./hm^2): 20% | Measured value E ([8]; dose 30 ga.i./hm^2): 65% | Control effect (visual observation %) [9, 20]: 46.0% | Control effect (visual observation %) [9, 21]: 68.1% | Control effect (visual observation %) [9, 22]: 82.4% | Control effect (visual observation %) [9, 23]: 94.3% | Control effect (visual observation %) [9, 24]: 54.0% | Control effect (visual observation %) [9, 25]: 62.4% | Control effect (visual observation %) [9, 26]: 93.8% | Control effect (visual observation %) [9, 27]: 100% | Control effect (visual observation %) [9, 28]: 38.6% | Control effect (visual observation %) [9, 29]: 57.3% | Control effect (visual observation %) [9, 30]: 100% | Control effect (visual observation %) [9, 31]: 100% | Control effect (visual observation %) [10, 20]: 16.6% | Control effect (visual observation %) [10, 21]: 18.0% | Control effect (visual observation %) [10, 22]: 31.0% | Control effect (visual observation %) [10, 23]: 34.3% | Control effect (visual observation %) [10, 24]: 18.4% | Control effect (visual observation %) [10, 25]: 19.8% | Control effect (visual observation %) [10, 26]: 36.7% | Control effect (visual observation %) [10, 27]: 40.7% | Control effect (visual observation %) [10, 28]: 20.9% | Control effect (visual observation %) [10, 29]: 43.2% | Control effect (visual observation %) [10, 30]: 32.9% | Control effect (visual observation %) [10, 31]: 42.5% | Measured value E ([11]; Table 3, dose 7.5 ga.i./hm^2): 0% | Measured value E ([11]; Table 3, dose 15 ga.i./hm^2): 10% | Measured value E ([12]; Table 4, dose 15 ga.i./hm^2): 5% | Measured value E ([12]; Table 4, dose 30 ga.i./hm^2): 20% | Measured value E ([6]; Table 1, dose 7.5 ga.i./hm^2): 0% | Measured value E ([6]; Table 1, dose 15 ga.i./hm^2): 15% | Measured value E ([6]; Table 2, dose 15 ga.i./hm^2): 10% | Measured value E ([6]; Table 2, dose 22.5 ga.i./hm^2): 25% | Measured value E ([6]; Table 3, dose 7.5 ga.i./hm^2): 0% | Measured value E ([6]; Table 3, dose 15 ga.i./hm^2): 10% | Measured value E ([6]; Table 4, dose 15 ga.i./hm^2): 10% | Measured value E ([6]; Table 4, dose 30 ga.i./hm^2): 15% | Measured value E ([13]; Table 5, dose 7.5 ga.i./hm^2): 10% | Measured value E ([13]; Table 5, dose 15 ga.i./hm^2): 15% | Measured value E ([14]; Table 5, dose 7.5 ga.i./hm^2): 5% | Measured value E ([14]; Table 5, dose 15 ga.i./hm^2): 10% | Measured value E [15, 32]: 5% | Measured value E [15, 33]: 15% | Measured value E [15, 34]: 30% | Measured value E [15, 35]: 45% | Measured value E [16, 32]: 10% | Measured value E [16, 33]: 30% | Measured value E [16, 34]: 35% | Measured value E [16, 35]: 55% | Measured value E ([17]; Table 6, dose 15 ga.i./hm^2): 10% | Measured value E ([17]; Table 6, dose 60 ga.i./hm^2): 35% | Measured value E ([17]; Table 7, dose 15 ga.i./hm^2): 20% | Measured value E ([17]; Table 7, dose 30 ga.i./hm^2): 50% | Measured value E [18, 36]: 10% | Measured value E [18, 37]: 25% | Measured value E [18, 38]: 40% | Measured value E [18, 39]: 55% | Measured value E [19, 36]: 5% | Measured value E [19, 37]: 10% | Measured value E [19, 38]: 15% | Measured value E [19, 39]: 25%

CCc1cccc(C)c1N(C(=O)CCl)C(C)COC (stereo not shown) [metolachlor]
Measured value E ([1]; Table 2, dose 90 ga.i./hm^2): 50% | Measured value E ([1]; Table 2, dose 135 ga.i./hm^2): 55% | Control effect, Amaranthusretroflexus [2]: 60 | Control effect, Lambsquarters [3]: 50 | Control effect, Bristlegrass [4]: 45 | Control effect, Crabgrass [5]: 60 | Measured value E ([6]; Table 2, dose 90 ga.i./hm^2): 40% | Measured value E ([6]; Table 2, dose 135 ga.i./hm^2): 60%

Source: patent US20210112813A1, “HERBICIDAL COMPOSITION AND USE THEREOF” (NANTONG JIANGSHAN AGROCHEMICAL & CHEMICALS CO., LTD., priority 2019, published 2021)
